≈ marks a conversion by molar mass, not a printed value.
Columns and labels:
[1] = system: Staphylococcus epidermidis; assay: Antibacterial activity against methicillin-sensitive Staphylococcus epidermidis ATCC 12228 after 18 hrs by CLSI broth microdilution method; type: functional; conditions: ATCC 12228, 18 h
[2] = system: Staphylococcus epidermidis; assay: Antibacterial activity against methicillin-resistant Staphylococcus epidermidis 12-8 after 18 hrs by CLSI broth microdilution method; type: functional; conditions: 12-8, 18 h
Staphylococcus aureus [3] = assay: Antibacterial activity against methicillin-sensitive Staphylococcus aureus ATCC 29213 after 18 hrs by CLSI broth microdilution method; type: functional; conditions: ATCC 29213, 18 h
Staphylococcus aureus [4] = assay: Antibacterial activity against methicillin-resistant Staphylococcus aureus 12-33 after 18 hrs by CLSI broth microdilution method; type: functional; conditions: 12-33, 18 h
Enterococcus faecalis [5] = assay: Antibacterial activity against vancomycin-sensitive Enterococcus faecalis ATCC 29212 after 18 hrs by CLSI broth microdilution method; type: functional; conditions: ATCC 29212, 18 h
Enterococcus faecalis [6] = assay: Antibacterial activity against vancomycin-resistant Enterococcus faecalis 09-9 after 18 hrs by CLSI broth microdilution method; type: functional; conditions: 09-9, 18 h
Enterococcus faecium [7] = assay: Antibacterial activity against vancomycin-resistant Enterococcus faecium ATCC 700221 after 18 hrs by CLSI broth microdilution method; type: functional; conditions: ATCC 700221, 18 h
Enterococcus faecium [8] = assay: Antibacterial activity against vancomycin-sensitive Enterococcus faecium 12-3 after 18 hrs by CLSI broth microdilution method; type: functional; conditions: 12-3, 18 h
Escherichia coli [9] = assay: Antibacterial activity against extended-spectrum beta-lactamase deficient Escherichia coli ATCC 25922 after 18 hrs by CLSI broth microdilution method; type: functional; conditions: ATCC 25922, 18 h
Escherichia coli [10] = assay: Antibacterial activity against extended-spectrum beta-lactamase harboring Escherichia coli 12-15 after 18 hrs by CLSI broth microdilution method; type: functional; conditions: 12-15, 18 h
Klebsiella pneumoniae [11] = assay: Antibacterial activity against extended-spectrum beta-lactamase harboring Klebsiella pneumoniae ATCC 700603 after 18 hrs by CLSI broth microdilution method; type: functional; conditions: Klebsiella pneumoniae, 700603, 18 h
Klebsiella pneumoniae [12] = assay: Antibacterial activity against new delhi metallo-beta-lactamase-1 harboring Klebsiella pneumoniae ATCC BAA-2146 after 18 hrs by CLSI broth microdilution method; type: functional; conditions: ATCC BAA-2146, 18 h
Klebsiella pneumoniae [13] = assay: Antibacterial activity against extended-spectrum beta-lactamase harboring Klebsiella pneumoniae 12-8 after 18 hrs by CLSI broth microdilution method; type: functional; conditions: 12-8, 18 h
Pseudomonas aeruginosa [14] = assay: Antibacterial activity against Pseudomonas aeruginosa ATCC 27853 after 18 hrs by CLSI broth microdilution method; type: functional; conditions: ATCC 27853, 18 h
[15] = system: Acinetobacter calcoaceticus; assay: Antibacterial activity against Acinetobacter calcoaceticus ATCC 19606 after 18 hrs by CLSI broth microdilution method; type: functional; conditions: ATCC 19606, 18 h
Enterobacter cloacae = assay: Antibacterial activity against Enterobacter cloacae ATCC 43560 after 18 hrs by CLSI broth microdilution method; type: functional; conditions: ATCC 43560, 18 h
Proteus mirabilis = assay: Antibacterial activity against Proteus mirabilis 12-6 after 18 hrs by CLSI broth microdilution method; type: functional; conditions: 12-6, 18 h
[16] = Cytotoxicity against HEK293T cells assessed as reduction in cell viability after 48 hrs by MTS assay; type: cell-based, HEK-293T; conditions: human
[17] = system: Staphylococcus epidermidis; assay: Antibacterial activity against methicillin-sensitive Staphylococcus epidermidis 12-6 after 18 hrs by CLSI broth microdilution method; type: functional; conditions: 12-6, 18 h
Staphylococcus aureus [18] = assay: Antibacterial activity against methicillin-resistant Staphylococcus aureus ATCC 33591 after 18 hrs by CLSI broth microdilution method; type: functional; conditions: ATCC 33591, 18 h
Staphylococcus aureus [19] = assay: Antibacterial activity against methicillin-sensitive Staphylococcus aureus 15 after 18 hrs by CLSI broth microdilution method; type: functional; conditions: Staphylococcus aureus, 15, 18 h
Staphylococcus aureus [20] = assay: Antibacterial activity against methicillin-sensitive Staphylococcus aureus 12-28 after 18 hrs by CLSI broth microdilution method; type: functional; conditions: 12-28, 18 h
Enterococcus faecalis [21] = assay: Antibacterial activity against vancomycin-resistant Enterococcus faecalis ATCC 51299 after 18 hrs by CLSI broth microdilution method; type: functional; conditions: ATCC 51299, 18 h
Enterococcus faecalis [22] = assay: Antibacterial activity against vancomycin-sensitive Enterococcus faecalis 12-5 after 18 hrs by CLSI broth microdilution method; type: functional; conditions: 12-5, 18 h
Enterococcus faecium [23] = assay: Antibacterial activity against vancomycin-resistant Enterococcus faecium 12-1 after 18 hrs by CLSI broth microdilution method; type: functional; conditions: 12-1, 18 h
Escherichia coli [24] = assay: Antibacterial activity against extended-spectrum beta-lactamase deficient Escherichia coli 1515 after 18 hrs by CLSI broth microdilution method; type: functional; conditions: Escherichia coli, 1515, 18 h
Escherichia coli [25] = assay: Antibacterial activity against extended-spectrum beta-lactamase deficient Escherichia coli 12-14 after 18 hrs by CLSI broth microdilution method; type: functional; conditions: 12-14, 18 h
Klebsiella pneumoniae [26] = assay: Antibacterial activity against extended-spectrum beta-lactamase deficient Klebsiella pneumoniae 7 after 18 hrs by CLSI broth microdilution method; type: functional; conditions: Klebsiella pneumoniae, 7, 18 h
Klebsiella pneumoniae [27] = assay: Antibacterial activity against extended-spectrum beta-lactamase deficient Klebsiella pneumoniae 12-4 after 18 hrs by CLSI broth microdilution method; type: functional; conditions: 12-4, 18 h
Pseudomonas aeruginosa [28] = assay: Antibacterial activity against Pseudomonas aeruginosa PAO1 after 18 hrs by CLSI broth microdilution method; type: functional; conditions: PAO1, 18 h
Pseudomonas aeruginosa [29] = assay: Antibacterial activity against Pseudomonas aeruginosa 12-16 after 18 hrs by CLSI broth microdilution method; type: functional; conditions: 12-16, 18 h
Klebsiella aerogenes = assay: Antibacterial activity against Enterobacter aerogenes ATCC 13048 after 18 hrs by CLSI broth microdilution method; type: functional; conditions: ATCC 13048, 18 h
Serratia marcescens = assay: Antibacterial activity against Serratia marcescens ATCC 21074 after 18 hrs by CLSI broth microdilution method; type: functional; conditions: ATCC 21074, 18 h
Providencia rettgeri = assay: Antibacterial activity against Providencia rettgeri ATCC 31052 after 18 hrs by CLSI broth microdilution method; type: functional; conditions: ATCC 31052, 18 h
Proteus vulgaris = assay: Antibacterial activity against Proteus vulgaris ATCC 29905 after 18 hrs by CLSI broth microdilution method; type: functional; conditions: ATCC 29905, 18 h
[30] = system: Stenotrophomonas maltophilia; assay: Antibacterial activity against Stenotrophomonas maltophilia ATCC 13636 after 18 hrs by CLSI broth microdilution method; type: functional; conditions: ATCC 13636, 18 h
Citrobacter freundii = assay: Antibacterial activity against Citrobacter freundii ATCC 43864 after 18 hrs by CLSI broth microdilution method; type: functional; conditions: ATCC 43864, 18 h

Row | SMILES | MIC [1] [µg/mL] | MIC [2] [µg/mL] | MIC (Staphylococcus aureus [3]) [µg/mL] | MIC (Staphylococcus aureus [4]) [µg/mL] | MIC (Enterococcus faecalis [5]) [µg/mL] | MIC (Enterococcus faecalis [6]) [µg/mL] | MIC (Enterococcus faecium [7]) [µg/mL] | MIC (Enterococcus faecium [8]) [µg/mL] | MIC (Escherichia coli [9]) [µg/mL] | MIC (Escherichia coli [10]) [µg/mL] | MIC (Klebsiella pneumoniae [11]) [µg/mL] | MIC (Klebsiella pneumoniae [12]) [µg/mL] | MIC (Klebsiella pneumoniae [13]) [µg/mL] | MIC (Pseudomonas aeruginosa [14]) [µg/mL] | MIC [15] [µg/mL] | MIC (Enterobacter cloacae) [µg/mL] | MIC (Proteus mirabilis) [µg/mL] | CC50 at 48 h [16] [µg/mL] | MIC [17] [µg/mL] | MIC (Staphylococcus aureus [18]) [µg/mL] | other results
1 | CNC(=N)c1ccc2cc(-c3cncc(-c4cc5ccc(C(=N)NC)cc5[nH]4)c3)[nH]c2c1 | 4 (≈ 9.49 µM) | 8 (≈ 19 µM) | > 64 | > 64 | > 64 | > 64 | > 64 | > 64 | > 64 | > 64 | > 64 | > 64 | > 64 | > 64 | > 64 | > 64 | > 64 | > 100 | 8 (≈ 19 µM) | > 64 | MIC (Staphylococcus aureus [19]): > 64 µg/mL; MIC (Staphylococcus aureus [20]): > 64 µg/mL; MIC (Enterococcus faecalis [21]): > 64 µg/mL; MIC (Enterococcus faecalis [22]): > 64 µg/mL; MIC (Enterococcus faecium [23]): > 64 µg/mL; MIC (Escherichia coli [24]): > 64 µg/mL; MIC (Escherichia coli [25]): > 64 µg/mL; MIC (Klebsiella pneumoniae [26]): > 64 µg/mL; MIC (Klebsiella pneumoniae [27]): > 64 µg/mL; MIC (Pseudomonas aeruginosa [28]): > 64 µg/mL; MIC (Pseudomonas aeruginosa [29]): > 64 µg/mL; MIC (Klebsiella aerogenes): > 64 µg/mL; MIC (Serratia marcescens): > 64 µg/mL; MIC (Providencia rettgeri): > 64 µg/mL; MIC (Proteus vulgaris): > 64 µg/mL; MIC [30]: > 64 µg/mL; MIC (Citrobacter freundii): > 64 µg/mL
2 | CN(C)CCCNC(=N)c1ccc2cc(-c3ccc(-c4cc5ccc(C(=N)NCCCN(C)C)cc5[nH]4)cc3)[nH]c2c1 | 2 (≈ 3.55 µM) | 2 (≈ 3.55 µM) | 4 (≈ 7.11 µM) | 4 (≈ 7.11 µM) | 4 (≈ 7.11 µM) | 4 (≈ 7.11 µM) | 4 (≈ 7.11 µM) | 8 (≈ 14.2 µM) | 4 (≈ 7.11 µM) | 8 (≈ 14.2 µM) | 8 (≈ 14.2 µM) | 8 (≈ 14.2 µM) | 8 (≈ 14.2 µM) | 8 (≈ 14.2 µM) | 128 (≈ 227 µM) | 8 (≈ 14.2 µM) | 128 (≈ 227 µM) | 27.7 (≈ 49.2 µM) | 4 (≈ 7.11 µM) | 4 (≈ 7.11 µM) | MIC (Staphylococcus aureus [19]): 4 µg/mL (≈ 7.11 µM); MIC (Staphylococcus aureus [20]): 4 µg/mL (≈ 7.11 µM); MIC (Enterococcus faecalis [21]): 4 µg/mL (≈ 7.11 µM); MIC (Enterococcus faecalis [22]): 8 µg/mL (≈ 14.2 µM); MIC (Enterococcus faecium [23]): 4 µg/mL (≈ 7.11 µM); MIC (Escherichia coli [24]): 8 µg/mL (≈ 14.2 µM); MIC (Escherichia coli [25]): 8 µg/mL (≈ 14.2 µM); MIC (Klebsiella pneumoniae [26]): 8 µg/mL (≈ 14.2 µM); MIC (Klebsiella pneumoniae [27]): 8 µg/mL (≈ 14.2 µM); MIC (Pseudomonas aeruginosa [28]): 8 µg/mL (≈ 14.2 µM); MIC (Pseudomonas aeruginosa [29]): 32 µg/mL (≈ 56.9 µM); MIC (Klebsiella aerogenes): 8 µg/mL (≈ 14.2 µM); MIC (Serratia marcescens): 8 µg/mL (≈ 14.2 µM); MIC (Providencia rettgeri): 8 µg/mL (≈ 14.2 µM); MIC (Proteus vulgaris): 16 µg/mL (≈ 28.4 µM); MIC [30]: 8 µg/mL (≈ 14.2 µM); MIC (Citrobacter freundii): 8 µg/mL (≈ 14.2 µM)
3 | CCC(CC)NC(=N)c1ccc2cc(-c3ccc(-c4cc5ccc(C(=N)NC(CC)CC)cc5[nH]4)cc3)[nH]c2c1 | 0.5 (≈ 0.939 µM) | 0.5 (≈ 0.939 µM) | 1 (≈ 1.88 µM) | 1 (≈ 1.88 µM) | 2 (≈ 3.75 µM) | 4 (≈ 7.51 µM) | 2 (≈ 3.75 µM) | 2 (≈ 3.75 µM) | 8 (≈ 15 µM) | 8 (≈ 15 µM) | 16 (≈ 30 µM) | 8 (≈ 15 µM) | 8 (≈ 15 µM) | 16 (≈ 30 µM) | 16 (≈ 30 µM) | 8 (≈ 15 µM) | 16 (≈ 30 µM) | 3.42 (≈ 6.41 µM) | 0.5 (≈ 0.939 µM) | 1 (≈ 1.88 µM) | MIC (Staphylococcus aureus [19]): 2 µg/mL (≈ 3.75 µM); MIC (Staphylococcus aureus [20]): 2 µg/mL (≈ 3.75 µM); MIC (Enterococcus faecalis [21]): 4 µg/mL (≈ 7.51 µM); MIC (Enterococcus faecalis [22]): 4 µg/mL (≈ 7.51 µM); MIC (Enterococcus faecium [23]): 2 µg/mL (≈ 3.75 µM); MIC (Escherichia coli [24]): 8 µg/mL (≈ 15 µM); MIC (Escherichia coli [25]): 8 µg/mL (≈ 15 µM); MIC (Klebsiella pneumoniae [26]): 8 µg/mL (≈ 15 µM); MIC (Klebsiella pneumoniae [27]): 8 µg/mL (≈ 15 µM); MIC (Pseudomonas aeruginosa [28]): 64 µg/mL (≈ 120 µM); MIC (Pseudomonas aeruginosa [29]): 32 µg/mL (≈ 60.1 µM); MIC (Klebsiella aerogenes): 8 µg/mL (≈ 15 µM); MIC (Serratia marcescens): 32 µg/mL (≈ 60.1 µM); MIC (Providencia rettgeri): 8 µg/mL (≈ 15 µM); MIC (Proteus vulgaris): 8 µg/mL (≈ 15 µM); MIC [30]: 16 µg/mL (≈ 30 µM); MIC (Citrobacter freundii): 8 µg/mL (≈ 15 µM)
